In PubChem BioAssay AID330 (DTP/NCI, 2004):
Values joined by “and” are separate entries in the source; they are usually repeats but may differ in a detail not shown here. Identical values can stand only once. Inconclusive results and toxic doses are left out. The calls were made as follows: active = survival T/C of 150% or more; inactive = T/C below 125% in these data. Peptide text beside a SMILES is read from it. * marks the point of attachment. For = O=C*

System: P388 leukemia ip, CD2F1 mice, survival T/C
Experiment: NCI In Vivo Anticancer Drug Screen. Data for tumor model P388 Leukemia (intraperitoneal) in CD2F1 (CDF1) mice
Settings: endpoint: median survival time, higher = longer survival
In short: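 Mice carrying the transplanted tumor received test compound or vehicle. Survival was recorded in each group, and the value is the treated-group measurement divided by that of the vehicle-treated control group.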

[1] = dose: 25.0 mg/kg/injection, schedule: Q01DX009 (ip), vehicle: saline with Tween-80
[2] = dose: 50.0 mg/kg/injection, schedule: Q01DX009 (ip), vehicle: saline with Tween-80
[3] = dose: 100.0 mg/kg/injection, schedule: Q01DX009 (ip), vehicle: saline with Tween-80
[4] = dose: 200.0 mg/kg/injection, schedule: Q01DX009 (ip), vehicle: saline with Tween-80
[5] = dose: 50.0 mg/kg/injection, schedule: Q01DX009 (ip), vehicle: Klucel (hydroxypropylcellulose) (HPC)
[6] = dose: 100.0 mg/kg/injection, schedule: Q01DX009 (ip), vehicle: Klucel (hydroxypropylcellulose) (HPC)
[7] = dose: 50.0 mg/kg/injection, schedule: Q01DX009 (ip), vehicle: saline
[8] = dose: 100.0 mg/kg/injection, schedule: Q01DX009 (ip), vehicle: saline
[9] = dose: 200.0 mg/kg/injection, schedule: Q01DX009 (ip), vehicle: saline
[10] = dose: 12.5 mg/kg/injection, schedule: Q01DX009 (ip), vehicle: saline
[11] = dose: 25.0 mg/kg/injection, schedule: Q01DX009 (ip), vehicle: saline
[12] = dose: 60.0 mg/kg/injection, schedule: Q01DX005 (ip), vehicle: saline with Tween-80
[13] = dose: 120.0 mg/kg/injection, schedule: Q01DX005 (ip), vehicle: saline with Tween-80
[14] = dose: 240.0 mg/kg/injection, schedule: Q01DX005 (ip), vehicle: saline with Tween-80
[15] = dose: 50.0 mg/kg/injection, schedule: Q01DX005 (ip), vehicle: saline with Tween-80
[16] = dose: 100.0 mg/kg/injection, schedule: Q01DX005 (ip), vehicle: saline with Tween-80
[17] = dose: 200.0 mg/kg/injection, schedule: Q01DX005 (ip), vehicle: saline with Tween-80
[18] = dose: 400.0 mg/kg/injection, schedule: Q01DX009 (ip), vehicle: saline with Tween-80
[19] = dose: 50.0 mg/kg/injection, schedule: Q01DX005 (ip), vehicle: Klucel (hydroxypropylcellulose) (HPC)
[20] = dose: 100.0 mg/kg/injection, schedule: Q01DX005 (ip), vehicle: Klucel (hydroxypropylcellulose) (HPC)
[21] = dose: 200.0 mg/kg/injection, schedule: Q01DX005 (ip), vehicle: Klucel (hydroxypropylcellulose) (HPC)

Measured: T/C

CC1(C)/C=C/C2=Nc3cc(Br)c(Br)c(Br)c3C23CC(=O)N3/C=C(\Cl)c2nc(Br)[nH]c21 (centres undefined)
inactive: dose: 0.7 mg/kg/injection, schedule: Q01DX005 (ip), vehicle: Klucel (hydroxypropylcellulose) (HPC) 106 % of control | dose: 1.4 mg/kg/injection, schedule: Q01DX005 (ip), vehicle: Klucel (hydroxypropylcellulose) (HPC) 101 % of control | dose: 2.8 mg/kg/injection, schedule: Q01DX005 (ip), vehicle: Klucel (hydroxypropylcellulose) (HPC) 97 % of control | dose: 5.6 mg/kg/injection, schedule: Q01DX005 (ip), vehicle: Klucel (hydroxypropylcellulose) (HPC) 112 % of control

O=C1CN(Cc2ccc3c(c2)OCO3)NO1
inactive: [1] 111 % of control | [2] 104 % of control and 108 % of control | [3] 101 % of control | [4] 119 % of control and 86 % of control

O=C1NC(=O)C2(C(=O)c3cccc4cccc2c34)N1c1ccccc1 (centres undefined)
inactive: dose: 50.0 mg/kg/injection, schedule: Q01DX009 (ip), vehicle: distilled water + alcohol 94 % of control | dose: 100.0 mg/kg/injection, schedule: Q01DX009 (ip), vehicle: distilled water + alcohol 102 % of control | dose: 200.0 mg/kg/injection, schedule: Q01DX009 (ip), vehicle: distilled water + alcohol 100 % of control

CN(CC1CNc2nc(N)[nH]c(=O)c2N1C=O)c1ccc(C(=O)NC(CCC(=O)O)C(=O)O)cc1 (centres undefined)
inactive: dose: 50.0 mg/kg/injection, schedule: Q01DX009 (ip), vehicle: sodium bicarbonate 101 % of control | dose: 100.0 mg/kg/injection, schedule: Q01DX009 (ip), vehicle: sodium bicarbonate 106 % of control | dose: 200.0 mg/kg/injection, schedule: Q01DX009 (ip), vehicle: sodium bicarbonate 108 % of control

O=C(CCl)Nc1nc(=O)[nH]s1
inactive: [5] 107 % of control | [6] 107 % of control

CC(C)(C)N1CC(COc2ccc(Cl)cc2)OC1=O (centres undefined)
inactive: [5] 99 % of control | [6] 104 % of control | dose: 200.0 mg/kg/injection, schedule: Q01DX009 (ip), vehicle: Klucel (hydroxypropylcellulose) (HPC) 102 % of control

O=C1c2ccccc2SC[C@@H]2CCCN12
inactive: dose: 60.0 mg/kg/injection, schedule: Q01DX005 (ip), vehicle: saline 101 % of control | dose: 120.0 mg/kg/injection, schedule: Q01DX005 (ip), vehicle: saline 99 % of control | dose: 240.0 mg/kg/injection, schedule: Q01DX005 (ip), vehicle: saline 99 % of control

Cc1cc(C)n(-c2cc(N3CCOCC3)ncn2)n1
inactive: [7] 96 % of control | [8] 95 % of control | [9] 98 % of control

CCOC(=O)NN
inactive: [10] 111 % of control | [11] 92 % of control

O=[N+]([O-])c1cc(CNCCO)c(O)c2ncccc12
inactive: [12] 91 % of control | [13] 93 % of control | [14] 110 % of control

COc1c(C=O)c2c(c(C=O)c1OC)OCO2
inactive: [15] 100 % of control | [16] 104 % of control | [17] 99 % of control

CSCCC(NC(=O)C(Cc1ccccc1)NC=O)C(=O)O (stereo not drawn) (For-Phe-Met-OH; configuration not given here)
inactive: [15] 108 % of control | [16] 103 % of control | [17] 104 % of control

COC(=O)/C(Br)=C/N(Cc1ccccc1)Cc1ccccc1
inactive: [3] 110 % of control | dose: 100.0 mg/kg/injection, schedule: Q04DX003 (ip), vehicle: saline with Tween-80 95 % of control | [4] 100 % of control | dose: 200.0 mg/kg/injection, schedule: Q04DX003 (ip), vehicle: saline with Tween-80 95 % of control | [18] 110 % of control | dose: 400.0 mg/kg/injection, schedule: Q04DX003 (ip), vehicle: saline with Tween-80 95 % of control

CCOC(=O)CCC1=C(C)c2cc3[n-]c(cc4nc(cc5[n-]c(cc1n2)c(CCC(=O)OCC)c5C)C=C4C)cc3C.[Ni+2]
inactive: [19] 96 % of control | [20] 92 % of control

NP1(N)=NP(N)(N)=NP(N)(N)=NP(N)(N)=N1
inactive: [19] 96 % of control | [20] 96 % of control | [21] 99 % of control

O=c1c2ccccc2oc2cc3c(c(O)c12)CCCC3
inactive: dose: 12.5 mg/kg/injection, schedule: Q01DX005 (ip), vehicle: saline with Tween-80 91 % of control | dose: 25.0 mg/kg/injection, schedule: Q01DX005 (ip), vehicle: saline with Tween-80 97 % of control

Cc1ccc(-c2nc3ccccc3c(=O)n2C(C)C)cc1
inactive: [2] 100 % of control | [3] 98 % of control | [4] 87 % of control

CCOc1ccc2nc3cc(N=Nc4ccc5c(N)c6cc(OCC)ccc6nc5c4)ccc3c(N)c2c1
inactive: [1] 98 % of control | [2] 108 % of control | [3] 120 % of control | [18] 120 % of control

CC1=C(N2CCOCC2)C(N2CCOCC2)C(C)C1=O (centres undefined)
inactive: [19] 100 % of control | [20] 101 % of control | [21] 100 % of control

O=C(O)C1CCCCC12OCCO2 (centres undefined)
inactive: dose: 100.0 mg/kg/injection, schedule: Q04DX002 (ip), vehicle: saline 102 % of control | dose: 200.0 mg/kg/injection, schedule: Q04DX002 (ip), vehicle: saline 106 % of control | dose: 400.0 mg/kg/injection, schedule: Q04DX002 (ip), vehicle: saline 98 % of control

Nc1n[n+](-c2cccc([N+](=O)[O-])c2)no1
inactive: dose: 3.13 mg/kg/injection, schedule: Q01DX009 (ip), vehicle: other 113 % of control | dose: 3.13 mg/kg/injection, schedule: Q01DX009 (ip), vehicle: water 106 % of control | dose: 6.25 mg/kg/injection, schedule: Q01DX009 (ip), vehicle: other 113 % of control | dose: 6.25 mg/kg/injection, schedule: Q01DX009 (ip), vehicle: water 110 % of control | dose: 25.0 mg/kg/injection, schedule: Q01DX009 (ip), vehicle: water 121 % of control | dose: 50.0 mg/kg/injection, schedule: Q01DX009 (ip), vehicle: other 113 % of control

C=C(C)C(=O)OCC1CO1 (centres undefined)
inactive: dose: 50.0 mg/kg/injection, schedule: Q01DX009 (ip), vehicle: water 100 % of control | dose: 100.0 mg/kg/injection, schedule: Q01DX009 (ip), vehicle: water 108 % of control | dose: 200.0 mg/kg/injection, schedule: Q01DX009 (ip), vehicle: water 120 % of control

COC(=O)C(O)NC(N)=O (centres undefined)
inactive: [2] 98 % of control | [3] 94 % of control | [4] 89 % of control

C1=Nc2ccccc2N=Cc2ccccc2NCCNc2ccccc21
inactive: dose: 6.25 mg/kg/injection, schedule: Q01DX009 (ip), vehicle: saline 98 % of control | [10] 101 % of control | [11] 92 % of control

Cc1ccc(/C=C2/N=C([Se])N(C)C2=O)cc1
inactive: dose: 15.0 mg/kg/injection, schedule: Q01DX005 (ip), vehicle: saline with Tween-80 100 % of control | dose: 30.0 mg/kg/injection, schedule: Q01DX005 (ip), vehicle: saline with Tween-80 95 % of control | [12] 101 % of control | [13] 86 % of control

O=C1CNC(=O)C(Cc2c[nH]c3ccccc23)N1 (centres undefined)
inactive: [7] 100 % of control | [8] 96 % of control | [9] 100 % of control

NNc1ncnc2cccc(Cl)c12
inactive: [12] 94 % of control | [13] 98 % of control | [14] 92 % of control

Cc1cc2nnn(C3OC(CO)C(O)C3O)c2cc1C (centres undefined)
inactive: [19] 105 % of control | [20] 107 % of control | [21] 104 % of control

COC(=O)C1=NC(=N)N=C(C(=O)OC)C1(C)C(=O)c1ccc(Cl)cc1 (centres undefined)
inactive: [12] 100 % of control and 104 % of control | [13] 98 % of control | [14] 99 % of control

CCOC(=O)C1(C)Sc2ccccc2N=C1c1ccccc1 (centres undefined)
inactive: dose: 60.0 mg/kg/injection, schedule: Q01DX005 (ip), vehicle: saline + Tween-80 + alcohol 98 % of control | dose: 120.0 mg/kg/injection, schedule: Q01DX005 (ip), vehicle: saline + Tween-80 + alcohol 93 % of control | dose: 240.0 mg/kg/injection, schedule: Q01DX005 (ip), vehicle: saline + Tween-80 + alcohol 89 % of control

COCCCNC1=C(Cl)C(=O)c2ccccc2C1=O
inactive: [2] 99 % of control | [3] 117 % of control | [4] 104 % of control
